According to patent US9884891B2, “KISS1R receptor agonist compounds and use thereof for inducing ovulation in mammals” (INSTITUT NATIONAL DE LA RECHERCHE AGRONOMIQUE, priority 2013, dated 2018):
Read-outs that look alike come from different tables or passages of the source. One block for each compound: values may come before it. *1 amine or outer side, *2 acyl side, *3 side chain or, on linkers, in order; H or OH if unused. Where a SMILES comes first, the peptide text is derived from it. [ ]: non-standard residue; d: D form. The star is where a group is joined. PEG 5000 = polyethylene glycol (5000) attached to the Lys side chain; Glyψ(1,4-Tz)Leu = CC(C)C[C@@H](C(=O)[*:2])n1cc(CN[*:1])nn1; γGlu = O=C(O)[C@H](CCC(=O)[*:2])N[*:1]; Arg(Me) = CNC(=N)NCCC[C@H](N)C(=O)O; Palmitoyl = CCCCCCCCCCCCCCCC(=O)*

Experiments:
[1] = Test for proteolytic degradation of the peptide compounds in ovine serum; assay type: in vitro ADME, ewes of the Ile de France breed; conditions: female, Ile de France, sheep
Description: In order to carry out this test, blood was collected from the jugular vein of ewes of the Ile de France breed, and centrifuged. The supernatant (serum) was stored at −20° C. until use.
The degradation in this serum of the various peptide compounds in accordance with the invention and of the comparative peptide compounds is monitored over time. To this effect, each peptide compound to be analyzed and the internal calibrant (L-phenylalaninol) are dissolved in milliQ water (0.5 mM and 6.6 mM, respectively). The commercial protease inhibitor cocktail (Sigma, ref. P8340) is supplied in solution in DMSO.
The serum and the stock solutions of peptide compounds are preheated at 39° C. for 30 minutes. Each solution of peptide compound (50 μl, i.e. a final concentration in the serum of 50 μM) and the solution of internal calibrant (25 μl) are mixed with 425 μl of serum and incubated at 39° C. The proteolytic degradation kinetics of the compounds are monitored by taking a sample, at various given times, of 75 μl of the solution, which are diluted with 150 μL of acetonitrile in order to precipitate the serum proteins. The suspension obtained is centrifuged at 14 000 revolutions/min for 10 min at 4° C.
The amount of peptide compound intact after incubation is determined by integration of the area of the peak, using L-phenylalaninol as internal calibrant. It is expressed as % of the area of the peak at time t=0.
The value corresponding to 100% of intact peptide compound is obtained by mixing 420 μl of serum, 5 μl of the inhibitor cocktail and 25 μl of the phenylalaninol solution, followed by 50 μl of peptide compound, and then by immediately treating the resulting solution according to the protocol described above.

human KISS1R receptor = target: T1, human KISS1R receptor (Homo sapiens, UniProt Q969F8); experiment: Intracellular calcium mobilization test in HEK293A cells expressing human KISS1R; assay type: cell-based; conditions: for EC50: HEK293A cells expressing human KISS1R, Fluo-4NW; for human KISS1R-stimulating power (in words): calcium mobilization, compared with Comp.1
T1 construct: expressed in transfected cells
Description: In order to carry out the in vitro tests for the activity of the peptide compounds in accordance with the invention and the comparative compounds, the HEK293A cell line (ATCC, American Type Culture Collection, Manassas, Va., USA) was stably transfected with the human KISS1R receptor (Genbank accession number: NM_032551). The pcDNA3.1 vector (Invitrogen, Cergy Pontoise, France), into which the sequence of human KISS1R has been inserted with a 5′ HA tag at position 957-2150 bp, was used for the transfection. The transfection and the selection of the clones were carried out as described in the literature (Mancini et al. 2009, and Invitrogen website).
In order to verify the agonist activity and to measure the EC50 of the peptide compounds according to the invention, the following protocol was carried out.
HEK293A cells expressing the human KISS1R receptor were seeded into a 96-well plate (μClear® black plate) at the concentration of 40 000 cells/well, and placed in an incubator at 37° C. After 48 hours, the medium was changed and the cells were incubated with the fluorescent dye Fluo-4NW, according to the instructions of the manufacturer (Molecular Probe).
After having measured the basal fluorescence, 5 μl of the 20× solution containing the test compound were added to each well (containing 95 μl) so as to obtain the desired concentration. The variations in fluorescence were recorded every 7 seconds for 5-7 minutes with a plate reader (PolarStar Optima, BMG Labtech). Activity-concentration curves were generated using the GraphPad Prism 5 software, and the EC50 of each compound was calculated by adjusting the curve to a sigmoid.

[2] = ovine serum, 39° C., 50 μM, 3 h, % of the area of the HPLC peak at time t = 0, read-out: % of peptide intact after 3 h of incubation in the serum
[3] = read-out: EC50, intracellular calcium mobilization of cells expressing human KISS1R (Table 2)
[4] = compounds with serum albumin binding unit or PEG, read-out: EC50, intracellular calcium mobilization of cells expressing human KISS1R (Table 3)

T1 sequence (Q969F8 whole entry): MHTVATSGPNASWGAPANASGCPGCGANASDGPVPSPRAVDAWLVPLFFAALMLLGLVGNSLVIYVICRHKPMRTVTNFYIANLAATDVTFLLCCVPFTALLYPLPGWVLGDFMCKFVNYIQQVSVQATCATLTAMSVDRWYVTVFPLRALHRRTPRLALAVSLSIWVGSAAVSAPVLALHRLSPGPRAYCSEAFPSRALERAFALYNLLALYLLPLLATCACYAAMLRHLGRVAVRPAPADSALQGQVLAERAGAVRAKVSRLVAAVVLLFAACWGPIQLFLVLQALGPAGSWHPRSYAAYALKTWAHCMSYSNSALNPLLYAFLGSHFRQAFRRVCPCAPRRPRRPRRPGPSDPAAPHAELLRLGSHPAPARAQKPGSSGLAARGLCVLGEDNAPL

Compound: CC(C)C[C@H](NC(=O)CNC(=O)[C@H](Cc1ccccc1)NC(=O)[C@H](CO)NC(=O)[C@H](CC(N)=O)NC(=O)[C@H](Cc1c[nH]c2ccccc12)NC(=O)[C@H](CC(N)=O)NC(=O)[C@@H](N)Cc1ccc(O)cc1)C(=O)N[C@@H](CCCNC(=N)N)C(=O)N[C@@H](Cc1ccccc1)C(N)=O [Comp. 2, reference compound]
- remaining at 3 h, 50 μM [1, 2]: < 0.1%

Compound: CNC(=N)NCCC[C@H](NC(=O)[C@H](CC(C)C)n1cc(CNC(=O)[C@H](Cc2ccccc2)NC(=O)[C@@H](NC(=O)[C@H](CC(N)=O)NC(=O)[C@@H]2C[C@@H](O)CN2C(=O)[C@@H](Cc2ccc(O)cc2)NC(C)=O)[C@@H](C)O)nn1)C(=O)N[C@@H](Cc1c[nH]c2ccccc12)C(N)=O [Compound C7, Ac-DTyr-Hyp-Asn-Thr-Phe-GlyΨ[Tz]Leu-Arg(Me)-Trp-NH2] (HELM PEPTIDE1{[ac].[dY].[Hyp].N.T.F.[CC(C)C[C@@H](C(=O)[*:2])n1cc(CN[*:1])nn1].[CNC(=N)NCCC[C@H](N[*:1])C(=O)[*:2]].W.[am]}$$$$V2.0)
- remaining at 3 h, 50 μM ([1]; serum): 17%
- EC50 (human KISS1R receptor; [3]): 0.014 nM

Compound: CCCCCCCCCCCCCCCC(=O)N[C@@H](CCC(=O)NCCCC[C@H](NC(=O)[C@H](CC(N)=O)NC(=O)[C@H](Cc1ccc(O)cc1)NC(C)=O)C(=O)N[C@@H](CC(N)=O)C(=O)N[C@@H](CO)C(=O)N[C@@H](Cc1ccccc1)C(=O)NCc1cn([C@@H](CC(C)C)C(=O)N[C@@H](CCCNC(=N)N)C(=O)N[C@@H](Cc2ccc(O)cc2)C(N)=O)nn1)C(=O)O [Compound C11, Ac-Tyr-Asn-Lys(γ-(N-hexadecanoyl-Glu-OH))-Asn-Ser-Phe-GlyΨ[Tz]Leu-Arg-Tyr-NH2] (HELM PEPTIDE1{[ac].Y.N.K.N.S.F.[CC(C)C[C@@H](C(=O)[*:2])n1cc(CN[*:1])nn1].R.Y.[am]}|PEPTIDE2{[CCCCCCCCCCCCCCCC(=O)[*:2]].[gGlu]}$PEPTIDE1,PEPTIDE2,4:R3-2:R2$$$V2.0)
- human KISS1R-stimulating power (in words) (human KISS1R receptor): remains, however, active, although to a lesser degree

Compound: Ac-Tyr-Lys(PEG5000)-Trp-Asn-Ser-Phe-GlyΨ[Tz]Leu-Arg-Tyr-NH2 (Ac-YK(PEG 5000)WNSFGLRY-NH2; also: Gly7-Leu8 peptide bond replaced by 1,4-disubstituted 1,2,3-triazole) [Compound C16, PEG5000 = COCH2CH2NH(CH2CH2O)nMe, average molecular weight approximately 5000 g/mol]
- human KISS1R-stimulating power (in words) (human KISS1R receptor): shows a power similar to the comparative compound Comp.1

Compound: H-YNWNSFGLRY-NH2 [Comp. 1, reference compound]
- remaining at 3 h, 50 μM [1, 2]: < 0.1%

Second part, led by results:

- remaining at 3 h, 50 μM ([1]; serum): 55%
- EC50 (human KISS1R receptor; [3]): 0.014 nM
Compound: CNC(=N)NCCC[C@H](NC(=O)[C@H](CC(C)C)n1cc(CNC(=O)[C@H](Cc2ccccc2)NC(=O)[C@H](CO)NC(=O)[C@H](CC(N)=O)NC(=O)[C@H](Cc2c[nH]c3ccccc23)NC(=O)[C@H](CC(N)=O)NC(=O)[C@H](Cc2ccc(O)cc2)NC(C)=O)nn1)C(=O)N[C@@H](Cc1ccc(O)cc1)C(N)=O [Compound C3, Ac-Tyr-Asn-Trp-Asn-Ser-Phe-GlyΨ[Tz]Leu-Arg(Me)-Tyr-NH2] (HELM PEPTIDE1{[ac].Y.N.W.N.S.F.[CC(C)C[C@@H](C(=O)[*:2])n1cc(CN[*:1])nn1].[CNC(=N)NCCC[C@H](N[*:1])C(=O)[*:2]].Y.[am]}$$$$V2.0)

- remaining at 3 h, 50 μM ([1]; serum): 51%
Compound: CC(=O)N[C@@H](Cc1ccc(O)cc1)C(=O)N[C@@H](CC(N)=O)C(=O)N[C@@H](Cc1c[nH]c2ccccc12)C(=O)N[C@@H](CC(N)=O)C(=O)N[C@@H](CO)C(=O)N[C@@H](Cc1ccccc1)c1cn(Cc2cn([C@@H](CC(C)C)C(=O)N[C@@H](CCCNC(=N)N)C(=O)N[C@@H](Cc3ccc(O)cc3)C(N)=O)nn2)nn1 [Compound C5, Ac-Tyr-Asn-Trp-Asn-Ser-PheΨ[Tz]GlyΨ[Tz]Leu-Arg-Tyr-NH2]
- human KISS1R-stimulating power (in words) (human KISS1R receptor): remains, however, active, although to a lesser degree

- EC50 (human KISS1R receptor; [4]): < 0.001 nM
Compound: CCCCCCCCCCCCCCCC(=O)N[C@@H](CCC(=O)N[C@@H](Cc1ccc(O)cc1)C(=O)N[C@@H](CC(N)=O)C(=O)N[C@@H](Cc1c[nH]c2ccccc12)C(=O)N[C@@H](CC(N)=O)C(=O)N[C@@H](CO)C(=O)N[C@@H](Cc1ccccc1)C(=O)NCc1cn([C@@H](CC(C)C)C(=O)N[C@@H](CCCNC(=N)N)C(=O)N[C@@H](Cc2ccc(O)cc2)C(N)=O)nn1)C(=O)O [Compound C9, γ-(N-hexadecanoyl-Glu-OH)-Tyr-Asn-Trp-Asn-Ser-Phe-GlyΨ[Tz]Leu-Arg-Tyr-NH2] (HELM PEPTIDE1{[CCCCCCCCCCCCCCCC(=O)[*:2]].[gGlu].Y.N.W.N.S.F.[CC(C)C[C@@H](C(=O)[*:2])n1cc(CN[*:1])nn1].R.Y.[am]}$$$$V2.0)

- EC50 (human KISS1R receptor; [4]): < 0.001 nM
Compound: CCCCCCCCCCCCCCCC(=O)N[C@@H](CCC(=O)N[C@@H](Cc1ccc(O)cc1)C(=O)N[C@@H](CC(N)=O)C(=O)N[C@@H](Cc1c[nH]c2ccccc12)C(=O)N[C@@H](CC(N)=O)C(=O)N[C@@H](CO)C(=O)N[C@@H](Cc1ccccc1)C(=O)NCc1cn([C@@H](CC(C)C)C(=O)N[C@@H](CCCNC(=N)N)C(=O)N[C@@H](Cc2c[nH]c3ccccc23)C(N)=O)nn1)C(=O)O [Compound C10, γ-(N-hexadecanoyl-Glu-OH)Tyr-Asn-Trp-Asn-Ser-Phe-GlyΨ[Tz]Leu-Arg-Trp-NH2] (HELM PEPTIDE1{[CCCCCCCCCCCCCCCC(=O)[*:2]].[gGlu].Y.N.W.N.S.F.[CC(C)C[C@@H](C(=O)[*:2])n1cc(CN[*:1])nn1].R.W.[am]}$$$$V2.0)

- EC50 (human KISS1R receptor; [4]): < 0.001 nM
Compound: CCCCCCCCCCCCCCCC(=O)N[C@@H](CCC(=O)N[C@@H](Cc1ccc(O)cc1)C(=O)N[C@@H](CC(N)=O)C(=O)N[C@@H](Cc1c[nH]c2ccccc12)C(=O)N[C@@H](CC(N)=O)C(=O)N[C@@H](CO)C(=O)N[C@@H](Cc1ccccc1)C(=O)NCc1cn([C@@H](CC(C)C)C(=O)N[C@@H](CCCNC(=N)NC)C(=O)N[C@@H](Cc2ccc(O)cc2)C(N)=O)nn1)C(=O)O [Compound C12, γ-(N-hexadecanoyl-Glu-OH)Tyr-Asn-Trp-Asn-Ser-Phe-GlyΨ[Tz]Leu-Arg(Me)-Tyr-NH2] ({Palmitoyl-γGlu}-YNWNSF[Glyψ(1,4-Tz)Leu][Arg(Me)]Y-NH2)

- EC50 (human KISS1R receptor; [4]): 0.01 nM
Compound: CCCCCCCCCCCCCCCC(=O)N[C@@H](CCC(=O)N[C@@H](Cc1ccc(O)cc1)C(=O)N[C@@H](CC(N)=O)C(=O)N[C@@H](Cc1c[nH]c2ccccc12)C(=O)N[C@@H](CC(N)=O)C(=O)N[C@@H](CO)C(=O)N[C@@H](Cc1ccccc1)C(=O)NCc1cn([C@@H](CC(C)C)C(=O)N[C@@H](CCCNC(=N)N)C(=O)N[C@@H](Cc2ccccc2)C(N)=O)nn1)C(=O)O [Compound C13, γ-(N-hexadecanoyl-Glu-OH)Tyr-Asn-Trp-Asn-Ser-Phe-GlyΨ[Tz]Leu-Arg-Phe-NH2] (HELM PEPTIDE1{[CCCCCCCCCCCCCCCC(=O)[*:2]].[gGlu].Y.N.W.N.S.F.[CC(C)C[C@@H](C(=O)[*:2])n1cc(CN[*:1])nn1].R.F.[am]}$$$$V2.0)
